Data: US20240059703A1 (AMGEN INC., priority 2021, published 2024)

Experiments:
KRAS G12C = KRAS G12C (Homo sapiens (Human), UniProt P01116, C118A/G12C); assay: 2 h coupled exchange assay; assay type: biochemical; settings: Avg 2 h Coupled exchange IC50, 2 h compound pre-incubation
Description: The term “2 h coupled exchange assay” or “20 h coupled exchange assay” as used herein refers to the assay described in the Section entitled “BIOLOGICAL EVALUATION.”

[1] = test system: A549 (human lung carcinoma) cells; assay: Cell Viability Assay (CellTiter-Glo), A549; assay type: cell-based; settings: Homo sapiens, A549, 72 h
Method in brief: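 Cells grown in RPMI 1640 with 10% FBS were seeded at 1.67E+04 cells/mL and left overnight at 37° C., 5% CO2. They were then exposed to serially diluted compound for 72 h, after which CellTiter-Glo luminescence was read, normalized to DMSO, and fitted to a 4-parameter logistic model for IC50.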

[2] = test system: MIA PaCa-2 (human pancreatic carcinoma) cells; assay: Cell Viability Assay (CellTiter-Glo), MIA PaCa-2; assay type: cell-based
Description: Serially-diluted compound or DMSO was added to the cells, and plates were incubated at 37° C., 5% CO2 for 72 h. Cell viability was measured using a CellTiter-Glo® Luminescent Cell Viability Assay kit (Promega) according to the manufacturer's protocol. The luminescence signal of treated samples was normalized to DMSO control, and data were analyzed using a 4-parameter logistic model to calculate IC50 values.

[3] = SOS-mediated nucleotide exchange

Chain of KRAS G12C (P01116 other isoform, or with tags, fused parts or gaps G12C/C118A): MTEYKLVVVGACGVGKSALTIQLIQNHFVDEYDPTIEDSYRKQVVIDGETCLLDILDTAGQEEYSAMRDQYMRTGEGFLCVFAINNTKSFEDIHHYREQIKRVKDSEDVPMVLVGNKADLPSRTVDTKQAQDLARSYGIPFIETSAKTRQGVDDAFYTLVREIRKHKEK

Compound	IC50 (KRAS G12C; [3]) [nM]	IC50 [1] [nM]	IC50 ([2]; Homo sapiens, MIA PaCa-2, 72 h) [nM]	IC50 (KRAS G12C) [nM]	IC50 ([2]; 72 h) [nM]
C=CC(=O)N1CC2(CCN(c3nc4c(c(-c5c(C)ccc6[nH]ncc56)c3C#N)[C@@H]3CC[C@H]4C3)C2)C1 (single isomer, unassigned) [Example 14-4]	17	> 5000	9		
C=CC(=O)N1CC2(CCN(c3nc4c(c(-c5c(C)ccc6[nH]ncc56)c3C#N)[C@@H]3CC[C@H]4C3)C2)C1 (single isomer, unassigned) [Example 14-7]	14	5570	6		
C=CC(=O)N1CC2(CCN(c3nc4c(c(-c5cc(O)ccc5C)c3C#N)[C@@H]3CC[C@H]4C3)C2)C1 (single isomer, unassigned) [Example 14-11]	38	> 5000	149		
C=CC(=O)N1CC2(CCN(c3nc4c(c(-c5c(C)ccc6cnn(C)c56)c3C#N)[C@@H]3CC[C@H]4C3)C2)C1 (single isomer, unassigned) [Example 14-15]	49	> 5000	68		
C=CC(=O)N1CC2(CCN(c3nc4c(c(-c5c(C)ccc6cnn(C)c56)c3C#N)[C@@H]3CC[C@H]4C3)C2)C1 (single isomer, unassigned) [Example 14-17]	22	> 5000	51		
C=CC(=O)N1CC2(CCN(c3nc4c(c(-c5cccc6cn[nH]c56)c3C#N)C[C@H]3C[C@@H]4C3(C)C)C2)C1 (single isomer, unassigned) [Example 14-29]		> 5000	143	58	
C=CC(=O)N1CC2(CCN(c3nc4c(c(-c5cc(O)ccc5C)c3C)COC(C)(C)C4)C2)C1 (single isomer, unassigned) [Example 14-31, (M)-1-(6-(4-(5-hydroxy-2-methylphenyl)-3,7,7-trimethyl-7,8-dihydro-5H-pyrano[4,3-b]pyridin-2-yl)-2,6-diazaspiro[3.4]octan-2-yl)-2-propen-1-one]		> 5000	105	106	
C=CC(=O)N1CC2(CCN(c3nc4c(c(-c5c(C)ccc6[nH]ncc56)c3C)COC(C)(C)C4)C2)C1 (single isomer, unassigned) [Example 14-33, (P)-1-(6-(3,7,7-trimethyl-4-(5-methyl-1H-indazol-4-yl)-7,8-dihydro-5H-pyrano[4,3-b]pyridin-2-yl)-2,6-diazaspiro[3.4]octan-2-yl)-2-propen-1-one]		> 5000	32	44	
C=CC(=O)N1CC2(CCN(c3nc4c(c(-c5ccc(F)c6sc(N)nc56)c3C)COC(C)(C)C4)C2)C1 (single isomer, unassigned) [Example 14-38, (P)-1-(6-(4-(2-amino-7-fluoro-1,3-benzothiazol-4-yl)-3,7,7-trimethyl-7,8-dihydro-5H-pyrano[4,3-b]pyridin-2-yl)-2,6-diazaspiro[3.4]octan-2-yl)-2-propen-1-one]		> 5000	123	63	
C=CC(=O)N1CC2(CCN(c3nc4c(c(-c5c(C)c(C)cc6cnn(C)c56)c3C)COC(C)(C)C4)C2)C1 (single isomer, unassigned) [Example 14-41, (P)-1-(6-(3,7,7-trimethyl-4-(1,5,6-trimethyl-1H-indazol-7-yl)-7,8-dihydro-5H-pyrano[4,3-b]pyridin-2-yl)-2,6-diazaspiro[3.4]octan-2-yl)-2-propen-1-one]		> 5000	408	66	
C=CC(=O)N1CC2(CCN(c3nc4c(c(-c5cccc6cc(O)ccc56)c3C)COC(C)(C)C4)C2)C1 (single isomer, unassigned) [Example 14-44, (P)-1-(6-(4-(6-hydroxy-1-naphthalenyl)-3,7,7-trimethyl-7,8-dihydro-5H-pyrano[4,3-b]pyridin-2-yl)-2,6-diazaspiro[3.4]octan-2-yl)-2-propen-1-one]		> 5000	44	71	
C=CC(=O)N1CC2(CCN(c3nc4c(c(-c5c(C)ccc6cn[nH]c56)c3C#N)C[C@H]3C[C@@H]4C3(C)C)C2)C1 (single isomer, unassigned) [Example 14-51]		> 5000	18	11	

More lines, now with the values ahead:

IC50 (KRAS G12C; [3]) [nM]	IC50 [1] [nM]	IC50 ([2]; Homo sapiens, MIA PaCa-2, 72 h) [nM]	IC50 (KRAS G12C) [nM]	IC50 ([2]; 72 h) [nM]	Compound
	> 5000	71	40		C=CC(=O)N1CC2(CCN(c3nc4c(c(-c5ccc(F)c6sc(N)nc56)c3C#N)COC(C)(C)C4)C2)C1 (single isomer, unassigned) [Example 14-57, (P)-4-(2-amino-7-fluoro-1,3-benzothiazol-4-yl)-7,7-dimethyl-2-(2-(2-propenoyl)-2,6-diazaspiro[3.4]octan-6-yl)-7,8-dihydro-5H-pyrano[4,3-b]pyridine-3-carbonitrile]
	> 5000	293	25		C=CC(=O)N1CC2(CCN(c3nc4c(c(-c5cc(O)ccc5C)c3F)C[C@H]3C[C@@H]4C3(C)C)C2)C1 (single isomer, unassigned) [Example 14-59]
	> 5000	82	68		C=CC(=O)N1CC2(CCN(c3nc4c(c(-c5cc(O)cc6ccccc56)c3F)COC(C)(C)C4)C2)C1 (single isomer, unassigned) [Example 14-70, (P)-1-(6-(3-fluoro-4-(3-hydroxy-1-naphthalenyl)-7,7-dimethyl-7,8-dihydro-5H-pyrano[4,3-b]pyridin-2-yl)-2,6-diazaspiro[3.4]octan-2-yl)-2-propen-1-one]
	> 5000	11	10		C=CC(=O)N1CC2(CCN(c3nc4c(c(-c5c(C)ccc6[nH]ncc56)c3F)C[C@H]3C[C@@H]4C3(C)C)C2)C1 (single isomer, unassigned) [Example 14-73]
	> 5000	92	45		C=CC(=O)N1CC2(CCN(c3nc4c(c(-c5c(C)ccc6cn[nH]c56)c3C#N)COC(C)(C)C4)C2)C1 (single isomer, unassigned) [Example 14-81, (P)-7,7-dimethyl-4-(6-methyl-1H-indazol-7-yl)-2-(2-(2-propenoyl)-2,6-diazaspiro[3.4]octan-6-yl)-7,8-dihydro-5H-pyrano[4,3-b]pyridine-3-carbonitrile]
	1800	80	81		C=CC(=O)N1CC2(CCN(c3nc4c(c(-c5c(C)c(Cl)cc6cnn(C)c56)c3C)COC(C)(C)C4)C2)C1 (single isomer, unassigned) [Example 14-89, (P)-1-(6-(4-(5-chloro-1,6-dimethyl-1H-indazol-7-yl)-3,7,7-trimethyl-7,8-dihydro-5H-pyrano[4,3-b]pyridin-2-yl)-2,6-diazaspiro[3.4]octan-2-yl)-2-propen-1-one]
	10000	254	208		C=CC(=O)N1CC2(CCN(c3nc4c(c(-c5c(C)ccc6cn[nH]c56)c3C)CC[C@H](c3c(C)cnn3C)C4)C2)C1 (single isomer, unassigned) [Example 14-97]
	> 5000	80	71		C=CC(=O)N1CC2(CCN(c3nc4c(c(-c5c(C)ccc6cnn(C)c56)c3C)CC[C@@H](c3c(C)cnn3C)C4)C2)C1 (single isomer, unassigned) [Example 14-98]
	> 5000	80	71		C=CC(=O)N1CC2(CCN(c3nc4c(c(-c5c(C)ccc6cnn(C)c56)c3C)COC(C)(C)C4)C2)C1 (single isomer, unassigned) [Example 14-99, (P)-1-(6-(4-(1,6-dimethyl-1H-indazol-7-yl)-3,7,7-trimethyl-7,8-dihydro-5H-pyrano[4,3-b]pyridin-2-yl)-2,6-diazaspiro[3.4]octan-2-yl)-2-propen-1-one]
	7620	32	45		C=CC(=O)N1CC2(CCN(c3nc4c(c(-c5cc(O)cc6ccccc56)c3C)COC(C)(C)C4)C2)C1 (single isomer, unassigned) [Example 14-103, (M)-1-(6-(4-(3-hydroxy-1-naphthalenyl)-3,7,7-trimethyl-7,8-dihydro-5H-pyrano[4,3-b]pyridin-2-yl)-2,6-diazaspiro[3.4]octan-2-yl)-2-propen-1-one]
	> 5000	12	17		C=CC(=O)N1CC2(CCN(c3nc4c(c(-c5cccc6cc(O)ccc56)c3C)CCN(C(C)C)C4)C2)C1 (single isomer, unassigned) [Example 18-4, (P)-1-(6-(4-(6-hydroxy-1-naphthalenyl)-3-methyl-7-(2-propanyl)-5,6,7,8-tetrahydro-1,7-naphthyridin-2-yl)-2,6-diazaspiro[3.4]octan-2-yl)-2-propane-1-one]
	> 25000		131	56	C=CC(=O)N1CC2(CCN(c3nc4c(c(-c5c(C)ccc6[nH]ncc56)c3C)CCN(C(C)C)C4)C2)C1 (single isomer, unassigned) [Example 18-19, (P)-1-(6-(3-methyl-4-(5-methyl-1H-indazol-4-yl)-7-(2-propanyl)-5,6,7,8-tetrahydro-1,7-naphthyridin-2-yl)-2,6-diazaspiro[3.4]octan-2-yl)-2-propane-1-one]
